Patent US8114850B2, “Antiproliferative activity of G-rich oligonucleotides and method of using same to bind to nucleolin” (Advanced Cancer Therapeutics, LLC, priority 1999, dated 2012)

Key:
[1] = tested on: MDA-MB-231 breast cancer cells; assay: MTT cell growth assay, MDA-MB-231 cells; assay type: cell-based, human; details: for growth of MDA-MB-231 cells (MTT): 15 uM on day 1, half the initial dose on days 2-4, 3′-propylamino oligonucleotides, vs water control, FIG. 1B
Protocol: Cells were plated at low density ([…] cells per well, depending on cell line) in the appropriate serum-supplemented medium in 96-well plates (one plate per MTT assay time point) and grown under standard conditions of cell culture. The following day (day 1) oligonucleotide, or water as control, was added to the culture medium to give a final concentration of 15 uM. Further oligonucleotide, equivalent to half the initial dose, was added to the culture medium on days two, three and four. Cells were assayed using the MTT assay (Morgan (1998) Methods. Mol. Biol. 79, 179-183) on days one, three, five, seven and nine after plating. The culture medium was not changed throughout the duration of the experiment (which was the time required for untreated cells to grow to confluence). Experiments were performed in triplicate and bars represent the standard error of the data. For the experiment shown in FIG. 7A, MDA-MB-231 breast cancer cells (5×10^2 cells per well) were plated in a 96-well plate. After twenty-four hours, a single dose of oligonucleotide, or equal volume of PBS as a control, was added to the culture medium to a final concentration of 10 uM. Viable cells were assessed seven days after plating using the MTT assay. For the experiment using 3′-unmodified oligonucleotides (FIG. 7D), serum-supplemented medium was replaced by serum-free medium containing oligonucleotide (or serum-free medium alone in control wells). After incubation at 37° C. for four hours, fetal calf serum (Life Technologies, Inc.) was added to the medium to give 10% v/v.

HeLa cells = assay: MTT cell growth assay, HeLa cells; assay type: cell-based, human; details: 15 uM on day 1, half the initial dose on days 2-4; 3′-propylamino oligonucleotides; vs water control; FIG. 1C
Protocol: (§1) Cells were plated at low density ([…] cells per well, depending on cell line) in the appropriate serum-supplemented medium in 96-well plates (one plate per MTT assay time point) and grown under standard conditions of cell culture. The following day (day 1) oligonucleotide, or water as control, was added to the culture medium to give a final concentration of 15 uM. Further oligonucleotide, equivalent to half the initial dose, was added to the culture medium on days two, three and four.
(§2) Cells were assayed using the MTT assay (Morgan (1998) Methods. Mol. Biol. 79, 179-183) on days one, three, five, seven and nine after plating. The culture medium was not changed throughout the duration of the experiment (which was the time required for untreated cells to grow to confluence). Experiments were performed in triplicate and bars represent the standard error of the data.

HS27 cells = assay: MTT cell growth assay, non-malignant HS27 cells; assay type: cell-based; details: compared to most malignant cell lines; FIG. 2
Protocol: as §1, §2

U937 cells = assay: MTT dose dependence, leukemic cell line U937; assay type: cell-based; details: FIG. 3
From the text: (§3) FIG. 3: MTT assays showing the dose dependence of growth modulation by GR029A for leukemic cell lines, U937 and […], and a non-malignant mouse hematopoietic stem cell line (ATCC 2037).

K562 cells = assay: MTT dose dependence, leukemic cell line K562; assay type: cell-based; details: FIG. 3
From the text: as §3

[2] = tested on: hematopoietic stem cell line (ATCC 2037); assay: MTT dose dependence, non-malignant hematopoietic stem cell line; assay type: cell-based, mouse; details: FIG. 3
From the text: as §3

[3] = tested on: MDA-MB-231 breast cancer cells; assay: Chemotherapeutic agent and GRO combination, MTT assay; assay type: cell-based, human; details: cisplatin 0.5 µg/ml, GR029A 8 uM added after two hours, MTT after six days
Protocol: Cisplatin (in 1% DMSO solution to give a final concentration of […]) was added to the medium of MDA-MB-231 breast cancer cells growing in culture. After two hours, GR029A (in PBS solution to give a final concentration of 8 uM) was added to the medium. After six days, the relative number of viable cells was determined using the MTT assay. Cells treated with GR029A alone received an appropriate volume of 1% DMSO in place of cisplatin. Cells treated with cisplatin alone received an appropriate volume of PBS in place of GR029A.

[4] = target: T1, TEL-binding protein (GRO-binding protein/nucleolin, MDA-MB-231 nuclear extracts) (Homo sapiens, UniProt P19338); assay: Competitive EMSA, labeled TEL and MDA-MB-231 nuclear extracts; details: 10 nM unlabeled oligonucleotide; labeled TEL, MDA-MB-231 nuclear extracts
T1 construct: Nuclear and cytoplasmic extracts from MDA-MB-231 cells were prepared using the protocol described in F. M. Ausubel et al; endogenous in cells; host or cells: MDA-MB-231 nuclear extract, prepared in house
T1 sequence (P19338 whole entry): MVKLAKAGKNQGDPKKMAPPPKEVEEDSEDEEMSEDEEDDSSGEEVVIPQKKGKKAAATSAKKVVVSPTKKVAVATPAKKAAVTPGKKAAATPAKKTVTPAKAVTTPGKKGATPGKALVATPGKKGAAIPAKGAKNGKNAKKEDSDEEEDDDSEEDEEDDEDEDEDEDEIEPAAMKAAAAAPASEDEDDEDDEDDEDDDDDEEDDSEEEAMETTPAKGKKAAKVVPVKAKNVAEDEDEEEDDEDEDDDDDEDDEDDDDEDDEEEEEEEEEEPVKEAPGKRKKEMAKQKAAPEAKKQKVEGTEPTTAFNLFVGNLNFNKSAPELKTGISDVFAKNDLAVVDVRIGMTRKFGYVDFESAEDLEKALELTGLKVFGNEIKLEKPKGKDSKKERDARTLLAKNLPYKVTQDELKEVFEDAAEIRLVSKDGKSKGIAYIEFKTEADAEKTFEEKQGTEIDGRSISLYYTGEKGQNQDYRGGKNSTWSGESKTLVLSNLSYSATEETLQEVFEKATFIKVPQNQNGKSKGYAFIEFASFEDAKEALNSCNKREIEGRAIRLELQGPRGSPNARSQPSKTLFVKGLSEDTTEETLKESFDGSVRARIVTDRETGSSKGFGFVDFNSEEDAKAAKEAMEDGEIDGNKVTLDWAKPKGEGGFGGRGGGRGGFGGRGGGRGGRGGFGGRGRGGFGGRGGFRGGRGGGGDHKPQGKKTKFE

| Substance | growth of MDA-MB-231 cells (MTT) [1] | growth of HeLa cells (MTT) (HeLa cells) | antiproliferative activity, MDA-MB-231 ([1]; single 10 uM dose, FIG. 7A) | growth modulatory effect on non-malignant HS27 cells (HS27 cells) | antiproliferative effect, U937 leukemia cells (U937 cells) | antiproliferative effect, K562 leukemia cells (K562 cells) | growth modulatory effect, non-malignant hematopoietic stem cell line (ATCC 2037) [2] | growth modulation [3] [%] | competition for protein binding in competitive EMSA [4] |
| --- | --- | --- | --- | --- | --- | --- | --- | --- | --- |
| 5′-GTTGTTTGG GGTGGT-3′ (GTTGTTTGGGGTGGT; DNA, backbone not given here; further chemistry not fully specified) [GRO15A] | modulated proliferation | modulated proliferation |  |  |  |  |  |  |  |
| 5′-TTTGGTGGTGGTGG TTGTGGTGGTGGTGG-3′ [GR029A] | modulated proliferation | modulated proliferation | active | lesser growth modulatory effect | antiproliferative effects | antiproliferative effects | lesser growth modulatory effect | 5 | competed strongly |
